These results are taken from patent US10125095B2, “Abscisic acid derivative” (NATIONAL UNIVERSITY CORPORATION SHIZUOKA UNIVERSITY, priority 2014, dated 2018).

Molecules are shown by their SMILES.

For assay [1], the target named is T1, PYL9 (Arabidopsis thaliana, UniProt Q84MC7).
T1 construct: 6xHis (N); made in house; host or cells: Escherichia coli BL21-codonplus(DE3)-RIPL (PYL); BL21(DE3)pLysS (HAB1)
T1 sequence (Q84MC7 1-187): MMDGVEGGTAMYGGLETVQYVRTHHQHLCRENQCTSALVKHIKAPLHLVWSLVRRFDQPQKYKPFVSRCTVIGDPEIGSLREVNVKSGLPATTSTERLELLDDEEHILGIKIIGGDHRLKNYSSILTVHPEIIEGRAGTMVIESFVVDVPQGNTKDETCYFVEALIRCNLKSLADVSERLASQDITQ
The assay is described as follows: Protein dephosphorylation enzyme activity test, PYL9. It is filed as biochemical, thale cress. The settings on record: control = 100%. The method, then: (§1) A plasmid (pGex-2T-GST-HAB1 or pET28-6×His-PYL) encoded with PYR/PYL/RCAR proteins (PYL, abscisic acid receptor) or protein dephosphorylation enzyme HAB1 of thale cress was transformed to Escherichia coli (HAB1:BL21(DE3)pLysS, PYL:BL21-codonplus(DE3)-RIPL). Isopropyl-β-thiogalactopyranoside was added to the culture broth, which had been subjected to pre-culture (30° C., 180 rpm, 15 hours) and main culture (30° C., 180 rpm, 4 hours), and the protein-expressed (16° C., 150 rpm, 18 hours) crude enzyme solution was purified using FPLC thereby preparing the recombined PYL (PYR1, PYL1-6, PYL8-10) and HAB1. β-Mercaptoethanol, a manganese chloride aqueous solution, HAB1, PYL, a solution of the sample in dimethylsulfoxide and ultrapure water were sequentially added to a 96-well plate, allowed to stand at 22° C. for 30 minutes. Subsequently p-nitrophenylphosphate, which is the artificial substrate of HAB1, was added thereto to start the reaction, and the plate was placed in a microplate reader (TECAN, Infinite™ N200 NanoQuant). The absorbance at 405 nm due to p-nitrophenol, which is the hydrolysate of p-nitrophenylphosphate, was measured 3 minutes later from the reaction initiation, and HAB1 activity was calculated by the following formula (2). Note that the fraction to which only dimethylsulfoxide was added was considered to be the control and the activity thereof was defined as 100%. […] HAB1 specific activity (%)=Absorbance when sample was added/Absorbance of control×100 (2)

In assay [2] the target is T2, HAB1 (Arabidopsis thaliana, UniProt Q9CAJ0).
T2 construct: GST (N); made in house; host or cells: Escherichia coli BL21(DE3)pLysS
T2 sequence (Q9CAJ0 23-511): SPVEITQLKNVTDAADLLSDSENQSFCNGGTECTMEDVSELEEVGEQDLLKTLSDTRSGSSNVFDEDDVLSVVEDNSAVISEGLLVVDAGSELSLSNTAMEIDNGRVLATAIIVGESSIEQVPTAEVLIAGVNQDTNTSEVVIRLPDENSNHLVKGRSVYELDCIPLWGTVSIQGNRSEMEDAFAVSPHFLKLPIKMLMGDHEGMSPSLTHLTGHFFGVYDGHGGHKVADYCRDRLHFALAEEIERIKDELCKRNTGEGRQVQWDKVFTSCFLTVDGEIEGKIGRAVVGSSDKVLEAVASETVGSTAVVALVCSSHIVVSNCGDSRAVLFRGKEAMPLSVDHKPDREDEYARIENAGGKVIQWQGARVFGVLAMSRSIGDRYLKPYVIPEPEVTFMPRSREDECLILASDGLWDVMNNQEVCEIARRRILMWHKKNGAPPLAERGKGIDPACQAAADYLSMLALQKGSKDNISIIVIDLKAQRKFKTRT
The assay is described as follows: Protein dephosphorylation enzyme activity test, no receptor. It is filed as biochemical, thale cress. The note with it: control = 100%. The method, then:
as §1

The test system of assay [3] is thale cress (Arabidopsis thaliana, Col-0) seedlings. The assay is described as follows: Thale cress growth test. Format: in vivo. The note with it: sprayed once a day, three weeks' culture. The method, then: Seeds of thale cress (Arabidopsis thaliana, Col-0) were sequentially immersed for 1 minute respectively in 500 μL of an aqueous solution of 5% bleach+1% SDS, 500 μL of a 70% aqueous solution of ethanol and 500 μL of a 70% aqueous solution of ethanol, washed five times in 1 mL of sterilized water, and then suspended in a 0.1% aqueous solution of agar. 25 mL each of germination medium (containing ½ MS medium inorganic salts) sterilized in an autoclave was added to a sterilized plastic petri dish, in which 60 to 80 seeds suspended in the 0.1% aqueous solution of agar were planted and, in a dark place, the seeds were vernilized at 4° C. for 3 days. The seeds were cultured at 22° C. under continuous light for 10 days. 40 g […] of sterilized soil (organic culture soil:vermiculite=1:1) was added to a plastic pot (50 mm×50 mm×50 mm, 35 mm bottom surface×35 mm height). Six plastic pots thus provided were placed in a 3000 mL-tray, 300 mL (depth 10 mm) of an aqueous solution of 1000-fold diluted HYPONeX (tradename (registered trademark), product of HYPONeX JAPAN CORP., LTD.) was added thereto and five roots each of thale cress seedlings were transplanted from the plastic petri dish. The seedlings were cultured at 22° C. under conditions of 16 hour light period-8 hour dark period, and 1 mL of an aqueous solution (prepared so as the final concentration of the compound of Example 7 to be 50 μM) of 0.1% DMSO (containing the compound of Example 7)+0.1% Approach BI (tradename (registered trademark), product of Kao Corporation) was sprayed once a day. Further, 300 mL of an aqueous solution of 2000-fold diluted HYPONeX was added every week. The same treatment as above was carried out using the compound of Comparative Example 1. Note that the seedlings, to which 1 mL of an aqueous solution of 0.1% DMSO+0.1% Approach BI without containing the above compound was sprayed once a day, were used as controls. […]

The test system of assay [4] is bok choy (Brassica rapa var. chinensis) seeds. Put plainly: Bok choy seed germination test. Format: in vivo. The note with it: co-applied with ABA.
In assay [5] the test system is lettuce (Lactuca saliva) seeds. Put plainly: Lettuce seed germination test. The note with it: co-applied with ABA. Format: in vivo.

As to `CC1=CC(=O)CC(C)(C)[C@@]1(O)/C=C/C(C)=C\C(=O)O` [ABA, abscisic acid], the “HAB1 Specific activity (%) PYL9” value in assay [1] (sample alone) is 31%. For the same compound, in assay [2] (sample alone), the “HAB1 Specific activity (%) None” value is 97%. In assay [3] (only ABA, 5 μM), the “Growth of thale cress” value was “the growth of thale cress was notably suppressed”.

With `CC1=C[C@@H](OCC#Cc2ccccc2)CC(C)(C)[C@@]1(O)/C=C/C(C)=C\C(=O)O` [Example 1, (2Z,4E)-5-((1S,4S)-1-hydroxy-2,6,6-trimethyl-4-((3-phenylprop-2-yn-1-yl)oxy)cyclohex-2-en-1-yl)-3-methylpenta-2,4-dienoic acid], the “Recovery of seed germination rate decreased by ABA” value in assay [4] and in assay [5] was “recovered the seed germination rates once decreased by ABA” throughout. Also, the “HAB1 Specific activity (%) PYL9” value in assay [1] (ABA + compound) is listed as 90%; in assay [1] (sample alone), 111%. Besides, the “HAB1 Specific activity (%) None” value in assay [2] (ABA + compound) is listed as 81%; in assay [2] (sample alone) it was 83.8%.

Consider `CC1=C[C@@H](OCC#Cc2ccc(C)cc2)CC(C)(C)[C@@]1(O)/C=C/C(C)=C\C(=O)O` [Example 7], for which the “Growth suppression effect of ABA on thale cress” value in assay [3] (50 μM compound co-applied with 5 μM ABA) is “the growth suppression effect by ABA was notably improved and the thale cress growth was recovered to the same extent as the controls”.
